What was measured:
tetanus toxoid [1] = assay: Tetanus toxoid remaining in supernatant after stirring with octadecyl tyrosine; type: physicochemical; conditions: pH 7.0, 24 hours room temperature
Method: Tetanus toxoid solution (10 ml, 30 Lf/ml, pH 7.0) was placed in a container with a magnetic stirring bar. An ether solution of octadecyl tyrosine (0.3 ml, 30 mg/ml) was added, the mixture stirred rapidly and the ether removed under vacuum. The resulting cloudy solution was stirred at room temperature for 24 hours.
To tetanus toxoid solution (10 ml, 30 Lf/ml, pH 7.0) was added dry octadecyl tyrosine base (10 mg) and the mixture stirred for 24 hours at room temperature.

tetanus toxoid [2] = tested on: tetanus toxoid; set-up: species or system guinea pigs; conditions: guinea pig, in vivo, sc
[3] = tested on: guinea pigs which had been sensitized to tetanus toxoid; conditions: guinea pig, in vivo

`CCCCCCCCCCCCCCCCCCOC(=O)[C@@H](N)Cc1ccc(O)cc1` [octadecyl tyrosine] was tested, and the “tetanus toxoid in supernatant, Procedure B” value (tetanus toxoid [1]; dry base 10 mg added to 10 ml toxoid 30 Lf/ml) was “no detectable tetanus toxoid” and the “tetanus toxoid in supernatant, Procedure A” value (tetanus toxoid [1]; ether solution 0.3 ml, 30 mg/ml added to 10 ml toxoid 30 Lf/ml, after centrifuging) was “no detectable tetanus toxoid”.

With Tetanus Toxoid the “Antibody Units/ml, 4 Weeks” value (tetanus toxoid [2]) was 1.39 ± 0.2 Units/ml, the “Antibody Units/ml, 61/2 weeks” value (tetanus toxoid [2]) was 7.2 ± 1.2 Units/ml and the “Diameter of skin reaction” value [3] was 17 ± 1.47 mm.

Source: patent US4258029A, “Synthetic adjuvants for stimulation of antigenic responses” (Connaught Laboratories Limited, priority 1979, dated 1981)
